Experimental data reported in ChEMBL document CHEMBL3217704, “Combination of biotransformation by P450 BM3 mutants with on-line post-column bioaffinity and mass spectrometric profiling as a novel strategy to diversify and characterize p38 kinase inhibitors” (Medchemcomm, 2013).

Target: Mitogen-activated protein kinase 14 (Homo sapiens, UniProt Q16539)
Experiment: Displacement of SKF86002 from recombinant human p38alpha by fluorescence-based assay; call rule not given here

Chain of Mitogen-activated protein kinase 14 (Q16539 whole entry): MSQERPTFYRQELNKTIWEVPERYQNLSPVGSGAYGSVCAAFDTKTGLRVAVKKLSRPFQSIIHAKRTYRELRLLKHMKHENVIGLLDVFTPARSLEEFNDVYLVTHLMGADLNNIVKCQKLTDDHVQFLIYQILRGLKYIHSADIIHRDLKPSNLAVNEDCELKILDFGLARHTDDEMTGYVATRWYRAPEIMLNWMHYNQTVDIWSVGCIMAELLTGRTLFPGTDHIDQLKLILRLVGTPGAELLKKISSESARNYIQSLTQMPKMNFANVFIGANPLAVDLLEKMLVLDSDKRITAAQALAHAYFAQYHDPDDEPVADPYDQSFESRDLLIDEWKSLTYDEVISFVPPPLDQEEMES

SMILES | IC50 (read-out: IC50) [nM] | IC50
CC(O)c1nc(-c2cccc(CO)c2)c(-c2ccnc(NC(=O)c3ccccc3)c2)s1 (stereo not given) | 460 | –
Cc1cccc(-c2nc(C(C)O)sc2-c2ccnc(NC(=O)c3ccccc3)c2)c1 (stereo not given) | 38 | –
CC(O)c1nc(-c2cccc(C(=O)O)c2)c(-c2ccnc(NC(=O)c3ccccc3)c2)s1 (stereo not given) | – | Not Active
CCc1nc(-c2cccc(CO)c2)c(-c2ccnc(NC(=O)c3ccccc3)c2)s1 | 310 | –
CCc1nc(-c2cccc(C(=O)O)c2)c(-c2ccnc(NC(=O)c3ccccc3)c2)s1 | 1500 | –
